Reference: patent publication US20190175598A1, “COMBINATION THERAPIES FOR THE TREATMENT OF HEPATOCELLULAR CARCINOMA” (Eisai R&D Management Co., Ltd., priority 2016, published 2019)

What was measured:
[1] = system: human hepatocellular cancer cell line JHH7 xenograft; experiment: JHH7 xenograft model of hepatocellular carcinoma, antitumor activity; assay type: in vivo, mice; details: PO QD 8 days
Description: The cell line used, JHH7, was sourced from Japanese Collection of Research Bioresources Cell Bank (JCRB), verified free of mycobacterium contamination and verified for identity by short tandem repeat analysis of 9 markers.
JHH7 cells were maintained in William's E Medium (Thermo Fisher Scientific, 12551-032) with 10% fetal bovine serum. Cells were maintained prior to and during experiments at 37° C. 5% CO2, and at 95% relative humidity. Cell passage number was limited to between 12 and 20.
The human hepatocellular cancer cell line JHH7 was cultured in William's E Medium (Thermo Fisher Scientific, 12551-032) containing 10% fetal bovine serum at 37° C. in a 5% CO2 atmosphere and kept in exponential growth phase. For harvesting, the cells were washed with phosphate buffered saline, incubated with 0.25% trypsin-EDTA, and suspended in a 1:1 mixture of William's E Medium and Matrigel (Corning) at a final concentration of 5×10^7 cells/mL. To generate xenografts, 0.1-mL of the inoculum was injected subcutaneously into the right flank region of NU/NU immuno compromised 6-8 week old female mice, giving a final concentration of 5×10^6 cells/mouse. When the mean tumor volume (TV) reached approximately 170 mm^3 (10 days after implantation), 144 mice were selected based on their TVs, and were sorted into 18 treatment groups with 8 animals per group. Per os (PO) treatment with Compound 1 (300 and 500 mg/kg) alone or in combination with vehicle (control) or palbociclib (50 and 100 mg/kg) or ribociclib (75 and 150 mg/kg) administered once daily (QD) continued for 8 days. The administration volume (0.1 mL/10 g body weight) was calculated from the individual mouse body weight (BW) before administration. Body weights were measured daily and tumor measurements were performed twice weekly.
(§1) where Day X is any day of measurement
(§2) The anti-tumor effects of the treatment, Partial (PR) and complete regression (CR), stable (SD) and progressive (PD) disease were defined by the Xenograft Model Response Criteria (see below). Mice with >20% body weight loss compared to their Day 1 body weight or bearing tumors with the longest diameter […] were immediately euthanized to prevent any pain or suffering in the animal as according to IACUC guidelines.
Data are expressed as the mean±SEM for Tumor Volume (TV). The differences in TV between groups were analyzed by two way ANOVA followed by Sidak post hoc test. Statistical analyses were performed using the GraphPad Prism version 6 (GraphPad Software, La Jolla, Calif.).
Progressive disease (PD): 3 consecutive measurements >120% of starting volume or 3 consecutive increasing measurements from best response, Stable disease (SD): 3 consecutive measurements >50% and <120% of starting volume, Partial regression (PR): 3 consecutive measurements <50% of starting volume, Complete regression (CR): 3 consecutive measurements <30 mm^3.

[2] = system: human primary hepatocellular carcinoma model LIX066; experiment: LIX066 patient derived xenograft model of hepatocellular carcinoma, antitumor activity; assay type: in vivo, mice; details: Example 3, oral daily 17 days
Description: The human primary hepatocellular carcinoma model LIX066 model from ChemPartner (shangpharma.com) were implanted into the female severe combined immunodeficiency (SCID) mice. When the tumors developed in mice, the mice were sacrificed and the tumors were resected and implanted into female nude mice for tumor preservation, histopathology diagnosis and in vivo efficacy study. Solid tumor tissues were depleted of necrotic components, cut into 10-15 mg pieces, and mixed. Three to five pieces were mixed with […] Matrigel and implanted into a flank of 6-8-week-old female NU/NU immune compromised mice weighing 18-20 g nude mice. 30 mice with average tumor volume of 160 mm^3 selected and randomized into 6 groups of 5 mice each. All of the primary human tumors utilized in this study had undergone 3-5 passages in vivo and the tumor histology of each was maintained over the serial transplantation process. Per os (PO) treatment with Compound 1 (300 and 500 mg/kg) alone or in combination with vehicle (control) or palbociclib (100 mg/kg) administered once daily (QD) continued for 17 days. The administration volume (0.1 mL/10 g body weight) was calculated from the individual mouse body weight (BW) before administration. Body weights were measured daily and tumor measurements were performed twice weekly.
as §1, §2
Data are expressed as the mean±SEM for Tumor Volume (TV). The differences in TV between groups were analyzed by two way ANOVA followed by Sidak post hoc test. Statistical analyses were performed using the GraphPad Prism version 6 (GraphPad Software, La Jolla, Calif.). […]

CN(C)C(=O)c1cc2cnc(Nc3ccc(N4CCNCC4)cn3)nc2n1C1CCCC1 [Ribociclib, 7-Cyclopentyl-2-(5-piperazin-1-yl-pyridin-2-ylamino)-7H-pyrrolo[2,3-d]pyrimidine-6-carboxylic acid dimethylamide, reference compound]
Tumor Growth Inhibition % (TGI) ([1]; Example 1, ribociclib 75 mg/kg single agent, vs vehicle controls (not significant)): 13% | Tumor Growth Inhibition % (TGI) ([1]; Example 1, ribociclib 150 mg/kg single agent, vs vehicle controls (P≤0.0001)): 23%

CC(=O)c1c(C)c2cnc(Nc3ccc(N4CCNCC4)cn3)nc2n(C2CCCC2)c1=O [Palbociclib, 6-acetyl-8-cyclopentyl-5-methyl-2-{[5-(piperazin-1-yl)pyridin-2-yl]amino}pyrido[2,3-d]pyrimidin-7(8H)-one, reference compound]
Tumor Growth Inhibition % (TGI) ([2]; palbociclib 100 mg/kg single agent, vs vehicle controls (P≤0.001)): 62% | Tumor Growth Inhibition % (TGI) ([1]; Example 2, palbociclib 50 mg/kg single agent, vs vehicle controls (not significant)): 11% | Tumor Growth Inhibition % (TGI) ([1]; Example 2, palbociclib 100 mg/kg single agent, vs vehicle controls (P≤0.05)): 26%

C=CC(=O)Nc1cc(N2CCN(CC)CC2)ccc1Nc1cc(N(C)C(=O)Nc2c(Cl)c(OC)cc(OC)c2Cl)ncn1 [Compound 1, N-(2-((6-(3-(2,6-dichloro-3,5-dimethoxyphenyl)-1-methylureido)pyrimidin-4-yl)amino)-5-(4-ethylpiperazin-1-yl)phenyl)acrylamide]
Tumor Growth Inhibition % (TGI) ([2]; Compound 1 300 mg/kg single agent, vs vehicle controls (P≤0.0001)): 59% | Tumor Growth Inhibition % (TGI) ([2]; Compound 1 500 mg/kg single agent, vs vehicle controls (P≤0.0001)): 70% | Tumor Growth Inhibition % (TGI) ([1]; Example 1, Compound 1 300 mg/kg single agent, vs vehicle controls): 14% | Tumor Growth Inhibition % (TGI) ([1]; Example 1, Compound 1 500 mg/kg single agent, vs vehicle controls): 35% | Tumor Growth Inhibition % (TGI) ([1]; Example 2, Compound 1 300 mg/kg single agent, vs vehicle controls (P≤0.01)): 12% | Tumor Growth Inhibition % (TGI) ([1]; Example 2, Compound 1 500 mg/kg single agent, vs vehicle controls (P≤0.0001)): 32%
